Laboratory results published in publication PMC3710292 (Cellular and molecular life sciences : CMLS, 2013).

Tests used:
Assay type in all cases: cell-based
[1] = biological target: human TRPM7 (Homo sapiens, UniProt Q96QT4); assay: whole-cell patch clamp, current at +[…] mV
[2] = biological target: TRPM7 Δ-kinase (Homo sapiens, UniProt Q96QT4); assay: whole-cell patch clamp, current at +[…] mV
[3] = biological target: human TRPM6 (hTRPM6) (Homo sapiens, UniProt Q9BX84); assay: whole-cell patch clamp, current at +[…] mV, […] s; details: intracellular iodide 154 mM; no intracellular Mg2+; pH 7.2

human TRPM7, sequence (Q96QT4 whole entry): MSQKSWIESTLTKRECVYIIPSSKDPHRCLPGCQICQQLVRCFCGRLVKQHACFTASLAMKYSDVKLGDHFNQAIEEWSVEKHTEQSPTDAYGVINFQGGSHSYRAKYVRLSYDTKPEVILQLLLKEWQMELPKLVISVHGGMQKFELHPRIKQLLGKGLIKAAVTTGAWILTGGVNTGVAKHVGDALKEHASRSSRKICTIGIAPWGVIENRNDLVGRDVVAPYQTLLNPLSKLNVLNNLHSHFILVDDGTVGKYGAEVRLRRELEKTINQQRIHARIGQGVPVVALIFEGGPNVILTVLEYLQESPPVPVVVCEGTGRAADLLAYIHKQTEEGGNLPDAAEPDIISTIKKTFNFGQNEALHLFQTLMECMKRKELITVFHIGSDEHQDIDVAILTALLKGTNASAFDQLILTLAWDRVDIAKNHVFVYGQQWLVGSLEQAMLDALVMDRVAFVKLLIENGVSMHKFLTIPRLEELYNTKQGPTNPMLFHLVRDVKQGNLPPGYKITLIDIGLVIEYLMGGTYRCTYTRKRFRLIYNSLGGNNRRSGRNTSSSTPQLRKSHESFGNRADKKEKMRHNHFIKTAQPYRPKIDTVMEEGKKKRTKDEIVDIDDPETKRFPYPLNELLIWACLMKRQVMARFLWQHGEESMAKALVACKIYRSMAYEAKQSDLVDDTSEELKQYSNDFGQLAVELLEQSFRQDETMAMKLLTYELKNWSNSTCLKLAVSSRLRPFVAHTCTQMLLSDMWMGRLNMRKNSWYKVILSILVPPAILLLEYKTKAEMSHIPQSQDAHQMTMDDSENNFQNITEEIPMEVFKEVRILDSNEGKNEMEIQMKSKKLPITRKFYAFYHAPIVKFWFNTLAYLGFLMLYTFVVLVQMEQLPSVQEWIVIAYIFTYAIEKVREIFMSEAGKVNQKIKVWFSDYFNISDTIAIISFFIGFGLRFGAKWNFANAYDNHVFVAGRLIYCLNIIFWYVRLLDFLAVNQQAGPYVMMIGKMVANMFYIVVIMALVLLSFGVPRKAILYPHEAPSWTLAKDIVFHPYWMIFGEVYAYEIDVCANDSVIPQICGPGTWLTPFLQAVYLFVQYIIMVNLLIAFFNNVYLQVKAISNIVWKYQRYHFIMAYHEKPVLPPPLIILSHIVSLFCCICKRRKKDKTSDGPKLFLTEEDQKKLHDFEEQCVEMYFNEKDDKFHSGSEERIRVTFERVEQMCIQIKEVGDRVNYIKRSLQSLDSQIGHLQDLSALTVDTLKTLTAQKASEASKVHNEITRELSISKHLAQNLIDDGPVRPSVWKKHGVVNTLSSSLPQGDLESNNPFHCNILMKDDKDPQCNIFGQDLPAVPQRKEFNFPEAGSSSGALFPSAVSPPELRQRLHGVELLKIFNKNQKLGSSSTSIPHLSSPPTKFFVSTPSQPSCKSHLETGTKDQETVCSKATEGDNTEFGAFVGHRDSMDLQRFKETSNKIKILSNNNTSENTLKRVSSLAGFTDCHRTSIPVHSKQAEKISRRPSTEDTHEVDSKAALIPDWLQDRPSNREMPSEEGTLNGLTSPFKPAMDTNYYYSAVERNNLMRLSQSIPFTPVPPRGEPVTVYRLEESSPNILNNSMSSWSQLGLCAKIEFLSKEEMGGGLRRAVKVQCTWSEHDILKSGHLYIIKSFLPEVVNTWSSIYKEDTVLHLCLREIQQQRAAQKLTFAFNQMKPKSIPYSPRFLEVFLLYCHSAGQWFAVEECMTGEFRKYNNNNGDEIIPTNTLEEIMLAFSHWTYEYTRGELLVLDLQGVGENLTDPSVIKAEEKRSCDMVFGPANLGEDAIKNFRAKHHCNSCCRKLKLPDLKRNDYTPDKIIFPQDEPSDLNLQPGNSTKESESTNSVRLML
TRPM7 Δ-kinase, sequence (Q96QT4 1-1569, stated change not applied): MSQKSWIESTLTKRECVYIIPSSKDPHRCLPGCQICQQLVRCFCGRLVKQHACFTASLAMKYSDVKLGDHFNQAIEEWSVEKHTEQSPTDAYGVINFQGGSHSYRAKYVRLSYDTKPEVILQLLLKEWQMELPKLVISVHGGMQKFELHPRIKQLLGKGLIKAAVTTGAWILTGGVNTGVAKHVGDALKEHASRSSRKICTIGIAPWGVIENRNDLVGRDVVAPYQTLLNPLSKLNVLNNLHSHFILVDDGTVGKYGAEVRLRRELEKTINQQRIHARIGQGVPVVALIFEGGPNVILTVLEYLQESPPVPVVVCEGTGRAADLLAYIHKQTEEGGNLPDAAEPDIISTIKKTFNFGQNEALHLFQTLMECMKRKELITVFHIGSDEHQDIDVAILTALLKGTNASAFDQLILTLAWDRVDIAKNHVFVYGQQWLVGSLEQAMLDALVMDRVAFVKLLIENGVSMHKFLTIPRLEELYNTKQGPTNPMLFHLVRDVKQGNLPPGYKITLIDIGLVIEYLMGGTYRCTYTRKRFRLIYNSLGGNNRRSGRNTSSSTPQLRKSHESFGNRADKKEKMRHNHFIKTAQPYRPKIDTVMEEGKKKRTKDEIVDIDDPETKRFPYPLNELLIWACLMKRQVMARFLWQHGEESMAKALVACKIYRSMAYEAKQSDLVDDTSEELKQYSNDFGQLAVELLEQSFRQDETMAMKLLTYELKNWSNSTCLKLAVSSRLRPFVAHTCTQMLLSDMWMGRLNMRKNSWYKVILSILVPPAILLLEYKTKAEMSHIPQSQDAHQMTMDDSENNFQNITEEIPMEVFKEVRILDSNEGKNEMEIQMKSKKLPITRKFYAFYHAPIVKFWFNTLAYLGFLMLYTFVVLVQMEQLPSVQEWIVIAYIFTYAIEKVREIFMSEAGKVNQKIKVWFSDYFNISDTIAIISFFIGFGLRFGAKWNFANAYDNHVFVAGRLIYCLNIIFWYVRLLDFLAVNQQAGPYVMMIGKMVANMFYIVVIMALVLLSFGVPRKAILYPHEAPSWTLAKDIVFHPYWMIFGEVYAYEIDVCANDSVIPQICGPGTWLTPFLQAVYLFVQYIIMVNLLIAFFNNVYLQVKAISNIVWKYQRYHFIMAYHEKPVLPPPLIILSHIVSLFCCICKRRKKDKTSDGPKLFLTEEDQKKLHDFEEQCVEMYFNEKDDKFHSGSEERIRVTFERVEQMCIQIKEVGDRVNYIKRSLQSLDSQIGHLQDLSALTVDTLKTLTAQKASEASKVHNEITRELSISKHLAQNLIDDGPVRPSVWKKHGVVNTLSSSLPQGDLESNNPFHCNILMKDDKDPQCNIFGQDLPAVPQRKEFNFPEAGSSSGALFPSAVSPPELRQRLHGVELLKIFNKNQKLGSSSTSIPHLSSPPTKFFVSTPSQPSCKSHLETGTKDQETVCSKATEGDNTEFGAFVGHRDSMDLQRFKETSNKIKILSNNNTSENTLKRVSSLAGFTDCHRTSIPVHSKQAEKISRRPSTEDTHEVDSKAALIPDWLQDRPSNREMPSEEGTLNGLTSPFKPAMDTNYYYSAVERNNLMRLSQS

IC50 [2] [mM]	% inhibition at 154 mM [3] [%]	Structure (SMILES)	IC50 [1] [mM]
		Br [bromide]	88 ± 6
		Cl [chloride]	99 ± 9
31 ± 3	52	I [iodide]	
